Source: PMC11719499 (International Journal of Molecular Sciences, 2024)
“Also recorded” adds a separate entry of the source.

What was measured:
[1] = tested on: HM mCherry-GFP-LC3 cells; assay: Autophagic flux assay by flow cytometry in HM mCherry-GFP-LC3 cells; assay type: cell-based, human; details: compounds at 10 µM and 40 µM, 24 h, compared to control
Description: Consequently, the autolysosomes manifest red fluorescence. Consequently, the red fluorescence observed in the cells can be used as a marker for the formation of autolysosomes. The extent of red fluorescence can be used as an indicator of the efficiency of the flux from the autophagosome to the autolysosome. The bioactivity of all compounds on autophagic flux was evaluated using HM mCherry-GFP-LC3 cells by flow cytometry. In summary, the HM mCherryGFP-LC3 cells were cultured in 12-well plates for 24 h in DMEM (Dulbecco’s modified Eagle medium) supplemented with 10% fetal bovine serum (Gibco-BRL, 10099–141, Gaithersburg, MD, USA) in a 37 ◦C incubator with 5% CO2 at 95% humidity. Subsequently, the compounds were introduced directly to the culture medium, resulting in final concentrations of 10 µM and 40 µM. Rapamycin was used as a positive control. Twenty-four hours following the administration of the treatment, the cells were harvested and fixed using 4% paraformaldehyde (PFA). […] The data were analyzed using the FlowJo software v10 (BD Biosciences, Franklin Lakes, NJ, USA).
Data analyses were carried out by using GraphPad Prism 8 (GraphPad Software, Inc., La Jolla, CA, USA). The one-way ANOVA (analysis of variance) was performed using Dunnett’s post hoc test for comparison between the treated group and control group, and the values were expressed as mean ± standard deviation (SD). […]

[2] = for BBB permeability (in words): PAMPA-BBB; for Prediction of penetration to the CNS: class from logPe in PAMPA-BBB

## C=C1C(OC(=O)C(C)C)C(O)C(OC(=O)c2ccccc2)C(C)(C)C=CC(C)C(OC(C)=O)C2(O)CC(C)(OC(C)=O)C(OC(=O)c3ccccc3)C2C1OC(C)=O (centres unmarked) [Compound 1, Euphjatrophane H]
[1]
  bioactivity towards autophagic flux: most promising activity; also recorded: significant activity on autophagic flux
[2]
  BBB permeability (in words): relatively high BBB permeability; also recorded: ability to penetrate the blood–brain barrier (BBB)
  Prediction of penetration to the CNS: CNS ++ (++ is logPe > −5.0)

## CC(C)NCC(O)COc1cccc2ccccc12 (centres unmarked) [Propranolol, propranolol, reference compound]
[2]
  Prediction of penetration to the CNS: CNS ++ (++ is logPe > −5.0)

## NC(=O)N1c2ccccc2C=Cc2ccccc21 [Carbamazepine, carbamazepine, reference compound]
[2]
  Prediction of penetration to the CNS: CNS ++ (++ is logPe > −5.0)

## C=C1[C@H](OC(=O)/C(C)=C/C)[C@@H](OC(C)=O)[C@@H](OC(C)=O)C(C)(C)/C=C/[C@H](C)[C@@H](OC(C)=O)[C@@]2(O)C[C@@](C)(OC(C)=O)[C@H](OC(=O)c3ccccc3)[C@@H]2[C@H]1OC(C)=O [Compound 12, euphpepluone F]
[1]
  bioactivity towards autophagic flux: most promising activity; also recorded: significant activity on autophagic flux
[2]
  BBB permeability (in words): relatively high BBB permeability; also recorded: ability to penetrate the blood–brain barrier (BBB)
  Prediction of penetration to the CNS: CNS + (+ is logPe > −6.0)
